Data taken from the NIST ThermoML archive (doi:10.1016/j.jct.2015.09.022).

Test: xn = mol fraction of the nth substance listed
Details: 100.7 kPa, Liquid; for viscosity: Falling or rolling sphere viscometry; for speed of sound: Frequency=3 MHz, Sing-around technique in a fixed-path interferometer; for mass density: Vibrating tube method

CCCC=O [butanal] + CCCC[n+]1ccn(C)c1.O=S(=O)([N-]S(=O)(=O)C(F)(F)F)C(F)(F)F
Details	mass density, 298.15 K [kg/m3]	mass density, 303.15 K [kg/m3]	mass density, 308.15 K [kg/m3]	speed of sound, 298.15 K [m/s]	speed of sound, 303.15 K [m/s]	speed of sound, 308.15 K [m/s]	viscosity, 298.15 K [mPa·s]	viscosity, 303.15 K [mPa·s]	viscosity, 308.15 K [mPa·s]
x2 = 0	796.99	791.8	786.41	1193.8	1172.7	1151.6	0.43	0.4	0.39
x2 = 0.0222	–	–	–	1192	1171.6	1150.1	–	–	–
x2 = 0.0464	–	–	–	1190.7	1170.9	1149.4	–	–	–
x2 = 0.0748	–	–	–	1189.2	1170	1148.8	–	–	–
x2 = 0.1056	979.73	975.4	971.06	1187.5	1169	1149.6	1.53	1.24	0.98
x2 = 0.2135	1105.53	1101.73	1097.08	1191.7	1173.6	1154.8	3.32	2.62	1.98
x2 = 0.3088	1185.23	1181.18	1176.97	1196.2	1179.9	1161.6	5.62	4.29	3.18
x2 = 0.4153	1251.86	1247.94	1243.96	1200.5	1185.4	1168.7	8.98	6.76	4.87
x2 = 0.5025	1294.27	1290.44	1286.66	1204.2	1189.5	1174.3	12.42	9.23	6.66
x2 = 0.5987	1332.31	1328.49	1324.67	1208.6	1195.7	1180.5	16.22	12.08	8.73
x2 = 0.6852	1360.82	1356.74	1352.96	1213.2	1200.6	1186.4	20.37	15.05	10.93
x2 = 0.7729	1385.61	1381.37	1377.44	1217.5	1206.6	1193.6	25.55	19.07	14.71
x2 = 0.8852	1412.72	1408.37	1404.09	1223.9	1213.6	1201	34.29	26.85	21.85
